Test results from US20030134880A1, “Novel cd23 inhibitors” (priority 2000, published 2003).

What follows are molecules tested against T1, human recombinant collagenase (Homo sapiens, UniProt P03956) (assay: Collagenase inhibition assay). Settings: acetylated 3H type 1 bovine collagen, 37° C., 18 h.
T1 construct: made in house; host or cells: E. coli
T1 sequence (P03956 100-469): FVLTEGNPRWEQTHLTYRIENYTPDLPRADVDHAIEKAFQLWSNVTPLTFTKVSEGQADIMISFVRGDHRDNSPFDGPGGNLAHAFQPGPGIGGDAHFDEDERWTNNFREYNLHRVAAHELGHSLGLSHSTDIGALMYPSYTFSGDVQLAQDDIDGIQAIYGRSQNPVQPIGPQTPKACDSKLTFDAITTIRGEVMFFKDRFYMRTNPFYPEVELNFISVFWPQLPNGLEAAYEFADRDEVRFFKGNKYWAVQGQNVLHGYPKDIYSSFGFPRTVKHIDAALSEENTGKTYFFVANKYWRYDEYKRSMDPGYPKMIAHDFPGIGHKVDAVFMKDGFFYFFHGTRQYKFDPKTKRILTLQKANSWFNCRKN
Assay type: biochemical
Description: Procedure 2: The ability of test compounds to inhibit collagenase was investigated using the following procedure.
Collagenase Inhibition Assay:
The potency of compounds to act as inhibitors of collagenase was determined by the method of Cawston and Barrett (Anal. Biochem. 99, 340-345, 1979), hereby incorporated by reference, whereby a 1 mM solution of the inhibitor being tested or dilutions thereof, was incubated at 37° C. for 18 h with collagen and human recombinant collagenase, from synovial fibroblasts cloned, expressed and purified from E. Coli, (buffered with 150 mM Tris, pH 7.6. containing 15 mM calcium chloride, 0.05% Brij 35.200 mM sodium chloride and 0.02% sodium azide). The collagen was acetylated ^3H type 1 bovine collagen prepared by the method of Cawston and Murphy (methods in Enzymology 80. 711,1981) The samples were centrifuged to sediment undigested collagen and an aliquot of the radioactive supernatant removed for assay on a scintillation counter as a measure of hydrolysis. The collagenase activity in the presence of 1 mM inhibitor, or dilution thereof, was compared to activity in a control devoid of inhibitor and the results reported as that concentration effecting 50% of the collagenase (IC50).

IC50, ≤ 10 µM:
O=C(NO)C(c1ccccc1)N(Cc1cccnc1)S(=O)(=O)Cc1ccc2sccc2c1 (racemic) [Example 2, (R,S)-2-[(Benzo[b]thiophen-5-ylmethanesulfonyl)(pyridin-3-ylmethyl)-amino]-N-hydroxy-2-phenylacetamide]
COCCOCCN([C@@H](C(=O)NO)c1ccccc1)S(=O)(=O)Cc1ccc2sccc2c1 [Example 1, (R)-2-{(Benzo[b]thiophen-5-ylmethanesulfonyl)[2-(2-methoxyethoxy)-ethyl]amino}-N-hydroxy-2-phenylacetamide]
CC(C)C[C@H](C(=O)NO)N(Cc1cccnc1)S(=O)(=O)Cc1ccc2sccc2c1 [Example 8]
O=C(NO)[C@@H](C1CCCCC1)N(Cc1ccco1)S(=O)(=O)Cc1ccc2sccc2c1 [Example 14, (R)-2-[(Benzo[b]thiophen-5-ylmethanesulfonyl)(furan-2-ylmethyl)-amino]-2-cyclohexyl-N-hydroxy-acetamide]
